Test results: publication PMC7851395 (British Journal of Cancer, 2020)
pIC50: −log10 of the molar value.

Legend:
NIH mice = experiment: Acute toxicity test; format: in vivo
Description: In the acute toxicity test, 30 NIH mice (female, 8 weeks old) were randomly divided into three groups (n = 10), including vehicle group, bufalin group (30 mg/kg) and acetyl-bufalin group (30 mg/kg). The three groups received intraperitoneal injection only on the first day. All the mice were housed under 12 h light–dark cycles at 25 °C and free for water and diet. […] All the mice were sacrificed by cervical dislocation.

H460 cells = experiment: MTT cytotoxicity assay, H460 cells; format: cell-based; conditions: Homo sapiens, NCI-H460; H460 cells, 48 h, MTT; read-out: IC50
Description: (§1) The cytotoxicity and viability of human NSCLC cells and normal cells were determined by MTT assay. MTT assay was performed as described previously.[22] MTT assay was used to determine the cell cytotoxicity and viability in human NSCLC cells. Cells (5 × 10^3 cells/well) were plated in 96-well plates and attached overnight. After the proper treatment, the MTT solution was added at 25 µL/well and incubated at 37 °C for 4 h. The formazan crystals were dissolved in 150 µL of DMSO, and the optical density (OD) was measured using a Microplate Reader at 490 nm. The cell viability was calculated by the following formula: viability = (average OD values of treatment wells/average OD values of vehicle control wells) × 100%. And half-maximal inhibitory concentration (IC50) values were determined by GraphPad Pro Prism 7.0.

[1] = tested on: human umbilical vein endothelial cell HUVEC; experiment: MTT cytotoxicity assay, normal HUVEC cells; format: cell-based
Description: as §1

[2] = Pharmacokinetic study in rat plasma (LC-MS/MS); format: in vivo, S.D. rats
Description: For the pharmacokinetic study, female S.D. rats (body weight 200 ± 10 g) have fasted overnight with free access to water before the experiment. Twelve rats were randomly divided into four groups. The time schedule included eight timepoints, and three S.D. rats were sampled at each time-point. Bufalin and acetyl-bufalin were administered intravenously and intraperitoneally to the rats at the dose of 0.25 mg/kg and 2 mg/kg, respectively. The animals had free access to water during the experiment. Blood samples were collected from the retro-orbital plexus of each rat at 0.083, 0.25, 0.5, 1, 2, 4, 6, 8, 12, 24 h after administration. Plasma was separated from the blood after centrifugation at 6000×g for 10 min and frozen at −20 °C until analysis. In total, 20 µL of standard samples in duplicate, quality control samples in duplicate and rat plasma samples were mixed with 60 µL of ethyl acetate containing IS (200 ng/mL of tolbutamide, 50 ng/mL of propranolol and 500 ng/mL of Dic) in EP tubes. After the mixture was vortexed for 1 min, then centrifuged for 10 min (13,000 rpm, 4 °C), transferred 50 µL supernatant to a 96-well plate with 150 µL purred water, shacked for 10 min and finally injected 5 µL into liquid chromatographic-tandem mass spectrometry (LC-MS/MS) system for analysis.

P-STAT3 = experiment: Western blot of STAT3 phosphorylation; format: cell-based, human; conditions: H460, A549 and PC-9 cells, 12 h, concentration-dependently
Description: Tissue proteins were extracted with tissue protein lysate buffer. Cells were grown to different densities and extracted with cell protein lysate buffer. The protein was mixed with loading buffer and boiled for 10 min at 100 °C, then loaded and separated by 10% or 12% sodium dodecyl sulfate-polyacrylamide gel (SDS-PAGE) and then transferred onto a PVDF membrane blocking with 5% skim milk. The blots were incubated overnight with specific primary antibodies at 4 °C. On the second day, after washing with TBST (a mixture of tris-buffered saline (TBS) and Tween 20) three times, the […] membranes were incubated with horseradish peroxidase-conjugated secondary antibodies for 1 h. The immunoreactive bands were visualised with enhanced chemiluminescence reagent.

H460 xenograft = format: in vivo, BALB/c nude mice; conditions: 2 mg/kg i.p. every other day
Description: All animal procedures were done accordingly with the Institutional laboratory animal research guidelines and were approved by Wenzhou Medical University Animal Policy and Welfare Committee. Female athymic BALB/c nude mice (5–6 weeks old) and immune-defective non-obese […] diabetic severe combined immunodeficiency (NOD-SCID) mice (6–8 weeks old) were purchased from the Vital River Experimental Animal Center (Beijing, China). All the mice were housed under 12 h light–dark cycles at 25 °C and free for water and diet. For the xenograft model, the H460 cells (5 × 10^6 cells were mixed with an equal volume of PBS and Matrigel in 100 μL) were implanted on the hind flank of nude mice. Once tumour volumes reached ~50 mm^3, 24 mice were divided into four experimental groups (six mice per group, no differences in mean body weights or tumour volumes between the groups) and intraperitoneal injection with 2 mg/kg SNS-032 (a recognised CDK9 inhibitor), bufalin and acetyl-bufalin every other day. Tumour volume was measured as V = (L × W × W)/2, in which L and W represent the length and width of tumour. Animals were killed by cervical dislocation once the tumour volume reached 1000 mm^3. The tumours, hearts, livers, kidneys and lungs were removed for use in the histology and western blot analysis.

[3] = tested on: normal lung cells BEAS-2B; experiment: MTT cytotoxicity assay, normal lung cells BEAS-2B; format: cell-based, human
Description: as §1

## CC(=O)OC1CCC2(C)C(CCC3C2CCC2(C)C(c4ccc(=O)oc4)CCC32O)C1 (centres unmarked) [acetyl-bufalin]
NIH mice; 30 mg/kg single i.p., 14 days, compared with vehicle
  weight of the remaining mice: stable
NIH mice; 30 mg/kg single intraperitoneal injection, observed 14 days, n = 10
  mortality (mice died): 2/10
H460 cells
  pIC50: 7.56
[1]
  cytotoxic effect on normal cells: low toxicity
[2]; 0.25 mg/kg i.v. and 2 mg/kg i.p.
  elimination in blood: much slower than bufalin
[2]; acetyl-bufalin and bufalin formed from it, compared with bufalin dosing
  Cmax: smaller
P-STAT3
  P-STAT3 protein levels: reduced
H460 xenograft; H&E staining
  gross toxicities on hearts, livers, kidneys or lungs: no gross toxicities
H460 xenograft; compared with vehicle
  tumour growth (weight and volume): significantly inhibited tumour growth
H460 xenograft; versus SNS-032 and bufalin
  comparison of inhibitory effect between treatments: best inhibitory effect
[3]
  cytotoxic effect on normal cells: low toxicity
